Source: ChEMBL document CHEMBL1287749, “Acetazolamide-based fungal chitinase inhibitors” (Bioorg Med Chem, 2010)
Active and inactive are the calls of the source. The calls are words filed in the database; no cut-off is given here.

Molecular target: T1, Endochitinase A1 (Aspergillus fumigatus) (UniProt Q873Y0)
T1 sequence (whole entry): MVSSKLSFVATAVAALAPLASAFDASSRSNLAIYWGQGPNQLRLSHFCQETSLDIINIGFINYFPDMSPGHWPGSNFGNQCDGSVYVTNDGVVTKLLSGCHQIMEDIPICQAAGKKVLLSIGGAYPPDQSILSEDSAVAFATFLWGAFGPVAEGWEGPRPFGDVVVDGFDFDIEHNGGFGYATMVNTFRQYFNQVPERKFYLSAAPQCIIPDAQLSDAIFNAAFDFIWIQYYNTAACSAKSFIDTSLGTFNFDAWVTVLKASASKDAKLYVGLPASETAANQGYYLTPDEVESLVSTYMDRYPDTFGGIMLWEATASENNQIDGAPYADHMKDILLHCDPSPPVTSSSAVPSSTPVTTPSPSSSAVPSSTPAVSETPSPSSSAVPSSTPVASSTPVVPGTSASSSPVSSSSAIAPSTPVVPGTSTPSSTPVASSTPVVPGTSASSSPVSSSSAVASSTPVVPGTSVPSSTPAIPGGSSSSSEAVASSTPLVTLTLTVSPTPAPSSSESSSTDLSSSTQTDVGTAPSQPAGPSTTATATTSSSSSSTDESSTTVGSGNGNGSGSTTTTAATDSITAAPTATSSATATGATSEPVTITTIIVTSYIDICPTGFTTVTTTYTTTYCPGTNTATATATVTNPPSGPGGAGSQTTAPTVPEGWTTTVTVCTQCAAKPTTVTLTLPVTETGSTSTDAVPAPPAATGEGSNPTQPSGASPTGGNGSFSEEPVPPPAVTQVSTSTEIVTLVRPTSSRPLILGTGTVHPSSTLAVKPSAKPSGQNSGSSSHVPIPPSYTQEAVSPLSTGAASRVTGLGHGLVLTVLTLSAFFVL
Details: 1 mM

## Nc1nnc(S(N)(=O)=O)s1
  inhibition: inactive
